According to ChEMBL document CHEMBL1201862, “PubChem BioAssay data set” (2004):
Activity calls are given as the source filed them.

Experiments:
[1] = biological target: T1, Sentrin-specific protease 8 (Homo sapiens, UniProt Q96LD8); assay type: functional
T1 sequence (Q96LD8 whole entry): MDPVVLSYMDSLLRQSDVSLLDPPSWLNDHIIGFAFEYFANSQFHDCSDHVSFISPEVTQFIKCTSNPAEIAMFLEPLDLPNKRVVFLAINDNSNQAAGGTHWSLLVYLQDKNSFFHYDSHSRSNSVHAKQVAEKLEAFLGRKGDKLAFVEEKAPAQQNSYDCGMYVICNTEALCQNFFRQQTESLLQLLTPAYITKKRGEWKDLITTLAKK

[2] = inhibition of ARNT PAS-B/TACC3 complex formation – biochemical, AlphaScreen, cherry-picked samples, confirmation (AID 651703); assay type: functional, Homo sapiens;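 also: His-tagged ARNT PAS-B domain paired with GST-TACC3 E629A dimer coactivator fragment; potency of inhibitors that break up the complex and lower AlphaScreen signal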
[3] = biological target: T1, Sentrin-specific protease 8; assay type: functional; remark: listed apart in the source
[4] = biological target: Aryl hydrocarbon receptor (Homo sapiens, UniProt P35869); conditions: Potency;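 also: confirmatory quantitative high-throughput screen measuring activation of the AhR signaling pathway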
Aryl hydrocarbon receptor, sequence (P35869 whole entry): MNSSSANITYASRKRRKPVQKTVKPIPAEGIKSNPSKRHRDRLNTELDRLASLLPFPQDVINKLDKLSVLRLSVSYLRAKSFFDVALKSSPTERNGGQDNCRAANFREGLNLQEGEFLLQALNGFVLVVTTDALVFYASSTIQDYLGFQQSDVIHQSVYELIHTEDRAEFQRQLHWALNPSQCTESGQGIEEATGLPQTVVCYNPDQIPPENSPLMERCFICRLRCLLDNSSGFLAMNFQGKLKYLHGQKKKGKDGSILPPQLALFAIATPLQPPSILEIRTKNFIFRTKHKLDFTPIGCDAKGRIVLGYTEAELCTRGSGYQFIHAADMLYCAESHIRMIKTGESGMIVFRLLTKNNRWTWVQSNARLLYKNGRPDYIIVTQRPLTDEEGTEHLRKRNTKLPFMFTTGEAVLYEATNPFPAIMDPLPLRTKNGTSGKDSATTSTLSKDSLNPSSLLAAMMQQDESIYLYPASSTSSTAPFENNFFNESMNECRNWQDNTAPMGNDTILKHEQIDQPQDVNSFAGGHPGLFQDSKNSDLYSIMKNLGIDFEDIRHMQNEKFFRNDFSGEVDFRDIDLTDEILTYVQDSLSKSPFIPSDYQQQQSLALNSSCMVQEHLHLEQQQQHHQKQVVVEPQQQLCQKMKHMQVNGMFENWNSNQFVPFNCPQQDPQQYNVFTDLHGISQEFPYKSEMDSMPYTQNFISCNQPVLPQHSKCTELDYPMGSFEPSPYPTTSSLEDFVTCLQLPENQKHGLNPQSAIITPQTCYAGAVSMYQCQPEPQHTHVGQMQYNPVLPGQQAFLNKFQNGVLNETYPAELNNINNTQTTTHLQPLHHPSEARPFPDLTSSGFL

[5] = biological target: T2, DNA repair protein RAD52 homolog (Homo sapiens, UniProt P43351); assay type: functional, biochemical
T2 sequence (P43351 whole entry): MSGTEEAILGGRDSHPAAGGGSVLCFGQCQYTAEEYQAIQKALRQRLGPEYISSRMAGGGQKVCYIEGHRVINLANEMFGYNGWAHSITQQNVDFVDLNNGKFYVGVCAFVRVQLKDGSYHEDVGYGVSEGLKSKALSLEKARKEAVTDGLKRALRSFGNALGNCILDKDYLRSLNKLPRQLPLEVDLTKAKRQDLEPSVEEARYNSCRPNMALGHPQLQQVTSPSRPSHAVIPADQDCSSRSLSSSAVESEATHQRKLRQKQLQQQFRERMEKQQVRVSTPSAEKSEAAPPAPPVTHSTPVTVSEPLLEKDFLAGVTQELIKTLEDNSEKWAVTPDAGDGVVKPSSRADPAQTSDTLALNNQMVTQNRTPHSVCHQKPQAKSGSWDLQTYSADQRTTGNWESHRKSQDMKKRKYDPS

[6] = biological target: DNA (cytosine-5)-methyltransferase 1 (Homo sapiens, UniProt P26358); test: inhibition of DNA methylation by DNMT1 – biochemical, fluorescent molecular beacon, confirmation (AID 602386); assay type: functional
DNA (cytosine-5)-methyltransferase 1, sequence (P26358 whole entry): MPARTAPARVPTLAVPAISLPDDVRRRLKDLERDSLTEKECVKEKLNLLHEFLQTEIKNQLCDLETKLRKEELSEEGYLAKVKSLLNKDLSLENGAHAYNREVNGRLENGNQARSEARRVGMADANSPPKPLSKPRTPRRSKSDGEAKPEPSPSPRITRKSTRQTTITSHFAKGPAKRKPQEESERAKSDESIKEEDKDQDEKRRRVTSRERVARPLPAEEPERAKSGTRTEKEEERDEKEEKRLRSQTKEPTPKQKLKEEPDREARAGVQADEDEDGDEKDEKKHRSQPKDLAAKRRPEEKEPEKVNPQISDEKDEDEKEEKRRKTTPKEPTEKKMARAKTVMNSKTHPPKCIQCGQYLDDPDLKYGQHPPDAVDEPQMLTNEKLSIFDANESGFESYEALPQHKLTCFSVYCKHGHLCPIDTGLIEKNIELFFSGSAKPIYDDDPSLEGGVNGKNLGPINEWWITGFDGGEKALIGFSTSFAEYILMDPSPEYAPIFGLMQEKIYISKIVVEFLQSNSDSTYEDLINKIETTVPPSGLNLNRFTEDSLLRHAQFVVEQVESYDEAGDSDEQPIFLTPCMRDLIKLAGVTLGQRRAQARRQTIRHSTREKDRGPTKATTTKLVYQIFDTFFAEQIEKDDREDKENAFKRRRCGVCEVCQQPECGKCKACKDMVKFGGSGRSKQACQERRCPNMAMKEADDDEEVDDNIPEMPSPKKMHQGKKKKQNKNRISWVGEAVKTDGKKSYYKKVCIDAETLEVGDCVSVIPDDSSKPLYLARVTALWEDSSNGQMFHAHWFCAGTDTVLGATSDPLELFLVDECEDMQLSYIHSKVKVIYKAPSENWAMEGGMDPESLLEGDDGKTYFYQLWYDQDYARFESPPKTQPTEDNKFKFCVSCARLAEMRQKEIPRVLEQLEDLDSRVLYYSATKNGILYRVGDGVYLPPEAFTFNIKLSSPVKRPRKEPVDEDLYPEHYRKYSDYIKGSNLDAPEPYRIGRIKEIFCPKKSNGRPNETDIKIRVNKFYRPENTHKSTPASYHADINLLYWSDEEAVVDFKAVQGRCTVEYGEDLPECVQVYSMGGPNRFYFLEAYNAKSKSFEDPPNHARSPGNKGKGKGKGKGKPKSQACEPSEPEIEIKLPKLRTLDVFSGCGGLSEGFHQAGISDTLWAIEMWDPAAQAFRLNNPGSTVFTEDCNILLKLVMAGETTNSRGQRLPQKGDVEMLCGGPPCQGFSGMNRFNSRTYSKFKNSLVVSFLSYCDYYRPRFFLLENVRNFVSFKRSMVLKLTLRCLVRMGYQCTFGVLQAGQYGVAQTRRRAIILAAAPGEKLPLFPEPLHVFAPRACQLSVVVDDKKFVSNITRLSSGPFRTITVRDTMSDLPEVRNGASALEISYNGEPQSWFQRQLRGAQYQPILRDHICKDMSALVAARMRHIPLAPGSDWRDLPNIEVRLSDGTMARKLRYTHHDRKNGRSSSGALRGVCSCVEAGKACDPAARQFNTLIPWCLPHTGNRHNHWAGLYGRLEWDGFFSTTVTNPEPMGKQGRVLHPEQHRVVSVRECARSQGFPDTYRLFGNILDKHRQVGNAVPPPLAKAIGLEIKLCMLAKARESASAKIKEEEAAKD

[7] = Luminescence Cell-Based Dose Response HTS to Identify Inhibitors of 5'UTR Stem-Loop Driven Prion Protein mRNA Translation in H4 Neuroglioblastoma Cells. [Related pubchem assays: 1827 (Project Summary), 1813 (Primary HTS)]; assay type: functional
[8] = alpha-synuclein stem-loop luciferase translation blockers – H4 neuroglioma cells, luminescence, confirmation (AID 1988); assay type: functional, cell-based
[9] = reduction of Shn3 3'UTR-driven luciferase in osteoblasts – cell-based, Clone20 osteoblasts, firefly luciferase, cherry-picked, dose response (AID 624132); assay type: functional;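 also: firefly luciferase luminescence from reporter carrying the Shn3 3'UTR in osteoblasts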
[10] = loss of viability in HepG2 cells – cell-based, CellTiter-Glo, cherry-picked, cytotoxicity control for Shn3 inhibitor project, dose response (AID 624134); assay type: functional
Protein Wnt-3a = Protein Wnt-3a (Mus musculus, UniProt P27467); test: antagonism of Wnt3a pathway luciferase reporter – Wnt-LIGHT cells, luminescence, selectivity assay for Gli-SUFU antagonist project, dose response (AID 651570); assay type: functional; conditions: read-out: IC50_Mean;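 also: Wnt-LIGHT reporter cells stimulated with conditioned medium from Wnt3a-producing cells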
Protein Wnt-3a, sequence (P27467 whole entry): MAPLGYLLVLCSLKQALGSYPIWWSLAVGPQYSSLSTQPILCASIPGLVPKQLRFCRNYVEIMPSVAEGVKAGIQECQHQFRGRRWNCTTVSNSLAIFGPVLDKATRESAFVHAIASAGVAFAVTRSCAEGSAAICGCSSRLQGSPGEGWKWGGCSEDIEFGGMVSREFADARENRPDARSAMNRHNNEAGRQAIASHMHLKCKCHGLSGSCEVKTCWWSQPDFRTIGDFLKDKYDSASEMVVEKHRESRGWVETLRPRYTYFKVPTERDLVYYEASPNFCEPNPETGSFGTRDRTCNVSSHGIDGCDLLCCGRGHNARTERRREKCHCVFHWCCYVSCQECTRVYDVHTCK

[11] = non-specific 3'UTR reporter inhibition in Clone20-Shn3RL – cell-based, Renilla luciferase, cherry-picked, counter-screen for Shn3 inhibitor project, dose response (AID 624133); assay type: functional
Interleukin-8 = Interleukin-8 (Homo sapiens, UniProt P10145); test: Dose Response confirmation of uHTS small molecule hits for cystic fibrosis induced NFkb Inhibitors in a PAF-induced IL8 counterscreen.; assay type: functional; conditions: read-out: IC50_Mean
Interleukin-8, sequence (P10145 whole entry): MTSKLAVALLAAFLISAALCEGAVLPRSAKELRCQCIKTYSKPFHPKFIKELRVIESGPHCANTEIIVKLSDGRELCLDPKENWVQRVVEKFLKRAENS

[12] = biological target: T3, Neuropeptides B/W receptor type 1 (Homo sapiens, UniProt P48145); test: human NPBW1 receptor blockade, IC50 – cell-based, fluorescence, dose response, set 5, late-stage follow-up (AID 588566); assay type: functional
T3 sequence (P48145 whole entry): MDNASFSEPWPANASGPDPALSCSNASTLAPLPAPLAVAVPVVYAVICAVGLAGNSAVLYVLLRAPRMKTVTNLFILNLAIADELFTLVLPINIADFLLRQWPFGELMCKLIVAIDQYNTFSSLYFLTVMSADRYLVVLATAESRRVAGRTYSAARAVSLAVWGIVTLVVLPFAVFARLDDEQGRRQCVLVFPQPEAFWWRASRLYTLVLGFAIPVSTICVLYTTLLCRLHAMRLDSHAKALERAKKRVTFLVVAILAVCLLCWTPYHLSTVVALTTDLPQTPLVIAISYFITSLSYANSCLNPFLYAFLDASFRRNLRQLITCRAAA

[13] = biological target: Melanin-concentrating hormone receptor 1 (Homo sapiens, UniProt Q99705); test: Late-stage fluorescence-based counterscreen for antagonists of the G-protein coupled receptor 7 (GPR7): cell-based dose response assay to identify antagonists of the melanin-concentrating hormone receptor 1 (MCHR1) Set 5.; assay type: functional
Melanin-concentrating hormone receptor 1, sequence (Q99705 whole entry): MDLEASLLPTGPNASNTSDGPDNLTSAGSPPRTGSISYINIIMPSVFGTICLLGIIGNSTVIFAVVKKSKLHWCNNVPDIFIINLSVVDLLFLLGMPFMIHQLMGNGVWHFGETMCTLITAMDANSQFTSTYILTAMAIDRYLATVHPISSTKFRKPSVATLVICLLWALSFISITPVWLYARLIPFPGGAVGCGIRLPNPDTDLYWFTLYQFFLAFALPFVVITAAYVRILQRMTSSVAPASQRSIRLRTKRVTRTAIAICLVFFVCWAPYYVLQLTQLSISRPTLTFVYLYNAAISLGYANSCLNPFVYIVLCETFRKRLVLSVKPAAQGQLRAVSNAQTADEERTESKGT

For `Cc1ccoc1C(=O)NCCCNC(=O)c1occc1C`, the IC50 [1] was 8.27 µM (active), the AC50 [2] was 84.7 µM (active) and the IC50 [3] was 12.7 µM (active).

For `Nc1ccc(N)c(Cl)c1`, the AC50 [4] was 31.6 µM (inconclusive).

In the case of `CC1(C)CC(N=c2cc(-c3ccccc3)oc3ccc(Cl)cc23)CC(C)(C)N1`, the AC50 [5] is reported as 0.689 µM (active), the IC50 [6] is reported as > 99 µM (inactive) and the EC50 [7] is reported as > 120 µM (not active). For the same molecule, the EC50 [8] was > 60 µM (not active).

In the case of `COCCOc1nc2c(c(=O)n(C)c(=O)n2C)n1Cc1cccc(OC)c1`, the AC50 [9] is reported as 2.23 µM (active), the AC50 [10] is reported as 59.9 µM (active) and the IC50 (Protein Wnt-3a) is reported as 6.29 µM (active). For the same molecule, the AC50 [11] was 4.09 µM (active).

For `Cc1ccc2occ(/C=N/NC(=O)c3ccccc3Br)c(=O)c2c1`, the IC50 (Interleukin-8) was 3.77 µM (active).

In the case of `CSc1ccc(Oc2cnn(Cc3cccc4ccccc34)c(=O)c2Cl)cc1`, the IC50 [12] is reported as 4.59 µM (active) and the IC50 [13] is reported as 9.04 µM (active).
